Test results from patent US12171769B2, “Methods, compositions, and kits for treating and/or preventing a side effect associated with radiation and/or chemotherapy exposure” (BioMimetix JV, LLC, priority 2017, dated 2024).
Like-named read-outs stand apart in the source and are kept apart here.

Legend:
[1] = stored at 27° C.; cited from earlier work
[2] = system: GSH/GSSG; settings: MnBuOE 0.2 mg/kg 24 hours prior to RT (9 Gy); 24 hours post-RT
Procedure: (§1) MnBuOE synthesis and administration: MnBuOE was synthesized as previously described. […] Mouse injections were administered subcutaneously, with MnBuOE dissolved in sterile saline. Mice received an initial dose of 0.2, 0.6, or 2.0 mg/kg, followed by three times per week (t.i.w.) maintenance doses of one-half of the loading dose (i.e., 0.1, 0.3, or 1.0 mg/kg, respectively) (termed 2/1, 0.6/0.3 and 0.2/0.1 dosing schedules).

[3] = system: normal tissue injury following RT+cisplatin
Procedure: Mice were treated with 1×9Gy+6 mg/kg cisplatin.
(§2) A collimating cone that produced a 15 mm×40 mm radiation field was used to target the radiation beam to the salivary gland and oral cavity. The RT field included all major and minor salivary glands (located primarily in the neck region of mice), and the oral mucosa, including glands of the cheeks, lips and tongue. The target tissues were localized within the radiation field with a source-to-subject distance of 30.76 cm, using fluoroscopy at 40 kVp and 2.5 mA with a 2 mm Al filter. […] Control mice were anesthetized but not imaged fluoroscopically or irradiated.
Mucositis evaluation using fluorescence molecular tomography: As reported previously, we used ProSense 750EX (Perkin Elmer, Waltham, MA) to detect mucositis. ProSense 750EX is a near-infrared (NIR) imaging agent that is cleaved by cathepsins, a family of enzymes that are expressed during inflammation, (17). Mice were injected intravenously with 100 μL ProSense 750EX. Twenty-four hours after injection, mice were anesthetized via isoflurane and imaged using the Visen FMT 2500LX (Perkin Elmer). The ProSense 750EX signal was quantified using TrueQuant software (Perkin Elmer Life and Analytical Sciences, Downers Grove, IL).

[4] = in vivo, 1.5 mg/kg
From the text: The magnitude of such oxidative modification is directly related to the levels of major reactive species involved in the process: H2O2 and MnBuOE.

[5] = system: xerostomia; settings: 11 weeks post-RT (9 Gy); 2/1 mg/kg MnBuOE; vs unirradiated control
Procedure: Xerostomia quantification by stimulating saliva production: Mice were injected intraperitoneally with 3 μg carbomylcholine chloride (Sigma) dissolved in sterile phosphate-buffered saline. Salivation began 2 minutes after injection. Saliva was collected via pipette for 4 minutes. The volume was measured gravimetrically, assuming a density of 1 g/mL.

[6] = system: mucositis
From the text: Animals: For normal tissue studies, six-to-eight week-old female C57B1/6 mice were used (Jackson Laboratory, Bar Harbor, ME). […] Mice were group housed in a barrier facility and allowed to acclimate to their new environment for at least one week before experiments.
Mucositis evaluation using fluorescence molecular tomography: As reported previously, we used ProSense 750EX (Perkin Elmer, Waltham, MA) to detect mucositis. […] The ProSense 750EX signal was quantified using TrueQuant software (Perkin Elmer Life and Analytical Sciences, Downers Grove, IL).

[7] = system: FaDu tumors; settings: MnBuOE 1.5 mg/kg b.i.d.; five fractions of radiation (5-10 Gy/fraction); previous work (13); cited from earlier work
[8] = system: FaDu (human pharyngeal carcinoma) cells
Procedure: For tumor control studies, female nu/nu mice were obtained from the Duke University Breeding Facility. Mice were group housed in a barrier facility and allowed to acclimate to their new environment for at least one week before experiments.
Tumor growth delay study: FaDu (human pharyngeal carcinoma) cells were obtained from the Duke University Cell Culture facility and were confirmed to be free of mycoplasma and known rodent pathogens. Cells were grown in Dulbecco's modified Eagle's medium with 10% fetal bovine serum. Mice were injected s.c. in the right flank with 3×10^6 cells suspended in 100 ml serum-free media. Seven days after implantation mice were randomized to treatment groups that received either MnBuOE (0.6 mg/kg loading dose followed by t.i.w. 0.3 mg/kg (loading/3× weekly maintenance) MnBuOE or an equivalent volume of saline. Tumors were measured daily with calipers and the volume was calculated using the equation V=(A^2×B×π)/6, where A is the shortest diameter and B is the longest diameter. As tumors reached 200 mm^3, they randomized into radiation treatment groups consisting of three daily fractions of radiation (6, 9, 12, 15 or 17 Gy/fraction) administered on three consecutive days. Cisplatin (6 mg/kg; APP pharmaceuticals, Schaumberg, IL) was injected intraperitoneally four hours prior to the first radiation fraction. […]

[9] = system: cognitive function; settings: eight subjects, before vs after concurrent chemoradiation (8 weeks)
Procedure: (§3) Four different loading doses were tested, which were: 7, 14, 28 and 42 mg, and the maintenance doses were half of the respective loading dose. The loading dose was administered prior to chemoradiation, and for the duration of treatment the respective maintenance doses were administered twice a week (i.e., a patient administered a 7 mg loading dose received two separate maintenance doses of 3.5 mg each week for 8 weeks.) The primary focus of this study is to determine the maximum tolerated dose of four dose levels. […] All subjects have a diagnosis of glioblastoma (WHO grade IV) and mean age is 62.7 years (range 54 years to 80 years).
Cognitive testing included Hopkins Verbal Learning Test-Revised (HVLT-R), Trails Making A and B Tests, and Controlled Oral Wood Association Test (COWA). […] This is notable because these are the primary cognitive tests that reveal poorer performance in multiple brain mestastases patients after whole brain radiation therapy.

[10] = system: leukocyte-endothelial cell interactions; settings: for Effect, repeated measures ANOVA of shear rates / Effect, repeated measures ANOVA of vessel diameter / Effect, repeated measures ANOVA of blood velocity: vs baseline (saline)
Procedure: as §1, §2
Mice were anesthetized with 80/8 mg/kg ketamine/xylazine mixture. Acridine orange (Sigma-Aldrich, St. Louis, MO) was injected intravenously (100 μl of 0.1% acridine orange in saline). The ventral surface of the tongue was placed on a glass cover slip before mounting the mouse onto a Zeiss Observer. Z1 (Carl Zeiss A G, Oberkochen, Germany) inverted microscope equipped with Zeiss Filter Set 38.
Fluorescent excitation was performed at 470 nm, and video was obtained at 525 nm using a 40× objective. Two separate regions with at least four veins in the […] range were identified, and a 60-120 second long video at 5 frames-per-second was obtained using Zen Imaging Software (Carl Zeiss A G, Oberkochen, Germany). Mice were kept warm while anesthetized using a heated stage.
Leukocyte-endothelial cell interaction analysis: All video analysis was performed in a blinded fashion. Rolling leukocytes were defined as cells that marginated along the vessel wall and were clearly dissociated from the bulk blood flow. Four vessels were analyzed per mouse. Leukocyte counting was repeated in triplicate for each vessel and averaged to obtain the flux of rolling leukocytes (Frolling). Vessel diameter (D) and the velocity of at least one free-flowing leukocyte(s) (VL) were also measured. A pseudo shear rate (gs) was also calculated for each vessel as: gs=8VL/D. These methods have been described previously. (18)

[11] = system: platelet count
Procedure: as §3
In patients receiving temozolomide the standard of care is to stop therapy for patients developing a platelet count below 100,000.

[12] = administered orally on an empty stomach; cited from earlier work
[13] = TMZ in combination with RT; cited from earlier work

N.N.[Cl][Pt][Cl] [cisplatin]
stability of reconstituted solution [1]: 20 h

manganese butoxyethyl pyridyl porphyrin [BMX-001]
GSH/GSSG lower than the 0 Gy MnBuOE tongue levels [2]: 4% | NIR signal (mucositis) ([3]; 1×9 Gy + 6 mg/kg cisplatin, MnBuOE 0.6 mg/kg loading, t.i.w. 0.3 mg/kg for five weeks, vs saline plus RT+cisplatin): significantly less NIR signal | xerostomia (saliva production) ([3]; 10, 11 and 12 weeks, MnBuOE for the first five weeks after RT+cisplatin, data not shown): trend towards reduced xerostomia | body weight ([3]; 10 weeks post-RT+cisplatin, MnBuOE 0.6/0.3 mg/kg, vs unirradiated control mice): not significantly different | long-term ulcerations and moist desquamation in the irradiated area ([3]; RT+cisplatin, MnBuOE vs saline): lessened | MnBuOE concentration in the tumor [4]: 1.5 to 2 µM | stimulated salivation (xerostomia) [5]: significant (p<0.05) decreases | NIR signal (mucositis signal) ([6]; day 11 post-RT, 9 Gy, 2/1 mg/kg MnBuOE s.c. (loading/t.i.w. maintenance), vs 0 Gy control): significantly increased | NIR signal (mucositis signal) ([6]; unirradiated mice, 2/1 mg/kg MnBuOE): did not show an appreciable NIR signal | dose-modifying effect (TCD50 curve) [7]: 1.3 | Kaplan-Meier analysis (time to tripling of tumor volume), MnBuOE vs saline treated mice ([8]; 0.6/0.3 mg/kg, at any radiation dose): no significant differences | slope of the dose response curve of tumor inhibition (AUC of dynamic treatment effect curves), MnBuOE vs control arm ([8]; p-value=0.47): no significant difference | Trails Making B Test [9]: faster scores | performance on Hopkins Verbal Learning Test-Revised (HVLT-R) ([9]; loading 7-28 mg, half dose twice a week): no degradation of performance | Effect, repeated measures ANOVA of shear rates ([10]; MnBuOE + RT (9 Gy)): −0.83 | Effect, repeated measures ANOVA of vessel diameter ([10]; MnBuOE + RT (9 Gy)): 0.002 | Effect, repeated measures ANOVA of blood velocity ([10]; MnBuOE + RT (9 Gy), 24 hours post-RT): 0.01 | Effect, repeated measures ANOVA of shear rates ([10]; MnBuOE alone): −20.88 | Effect, repeated measures ANOVA of vessel diameter ([10]; MnBuOE alone): 0.009 | Effect, repeated measures ANOVA of blood velocity ([10]; MnBuOE alone, 24 hours post sham RT): −0.00 | leukocyte rolling ([10]; MnBuOE treatment alone): without increasing leukocyte rolling | mean number of rolling leukocytes ([10]; combination of 0.2/0.1 MnBuOE and RT, 24 hours post-RT): decreases | patients who developed platelet counts below 100,000 ([11]; BMX-001+temozolomide + radiation, loading doses 7 mg to 28 mg/subject, N=9): None of the nine

Cn1nnc2c(C(N)=O)ncn2c1=O [TMZ, 8-Carbamoyl-3-methylimidazol[5,1-d]-1,2,3,5-tetrazine-4-(3H)-one]
bioavailable [12]: approximately 100% | Grade 3/4 non-hematological toxicity: Fatigue [13]: 7% | Grade 3/4 non-hematological toxicity: infection [13]: 3% | Grade 3/4 non-hematological toxicity: nausea and vomiting with a 5HT3-RA [13]: < 1% | Grade 3/4 non-hematological toxicity: other constitutional symptoms [13]: 2% | Grade 3/4 non-hematological toxicity: rash and dermatologic side effects [13]: 1% | Grade 3/4 non-hematological toxicity: vision [13]: 1% | Non-hematological grade 2 toxicity: Fatigue [13]: 26% | Non-hematological grade 2 toxicity: infection [13]: 1% | Non-hematological grade 2 toxicity: nausea and vomiting [13]: 13% | Non-hematological grade 2 toxicity: other constitutional symptoms [13]: 7% | Non-hematological grade 2 toxicity: rash and dermatologic side effects [13]: 9% | Non-hematological grade 2 toxicity: vision [13]: 14% | patients who developed platelets below 100,000 ([11]; temozolomide + radiation without BMX-001, n=20): 9 out of 20
